Laboratory results published in patent US9067892B2, “Spiroheterocyclic N-oxypiperidines as pesticides” (Syngenta Crop Protection, Inc., priority 2008, dated 2015).

Key:
[1] = tested on: Thrips Tabaci (onion thrips); assay: Example B3: Thrips tabaci, mixed population, feeding/residual contact activity, preventive; assay type: in vivo; settings: foliar, 144 h, sunflower leaf discs sprayed, 6 days incubation, mortality
[2] = tested on: Myzus persicae (green peach aphid); assay: Example B16: Myzus persicae on pepper plants, feeding/residual contact activity; assay type: in vivo; settings: 144 h, infested pepper plants sprayed, 6 days after treatment, mortality, read-out: activity against Myzus persicae
[3] = tested on: Myzus persicae (green peach aphid); assay: Example B1: Myzus persicae, mixed population, feeding/residual contact activity, preventive; settings: foliar, 144 h, read-out: activity
[4] = tested on: Tetranychus urticae (two-spotted spider mite); assay: Example B4: Tetranychus urticae, mixed population, feeding/residual contact activity, preventive; assay type: in vivo; settings: foliar, 192 h, bean leaf discs sprayed, 8 days, egg, larval and adult mortality
From the text: Activity Against Tetranychus urticae (Two-Spotted Spider Mite) (Mixed Population, Feeding/Residual Contact Activity, Preventive) Bean leaf discs on agar in 24-well microtiter plates are sprayed with test solutions. […] 8 days later, discs are checked for egg mortality, larval mortality, and adult mortality.

[5] = tested on: Nilaparvata lugens (brown rice planthopper); assay: Example B8: Nilaparvata lugens, larvicide, feeding/contact; assay type: in vivo; settings: rice seedlings sprayed, N3 nymphs, 6-12 days after treatment
Description: Activity Against Nilaparvata lugens (Brown Rice Planthopper) (Larvicide, Feeding/Contact) Rice seedlings are treated with the diluted test solutions in a spray chamber. After drying, they are infested with 20 N3 nymphs (2 replicates). 6-12 days after the treatment samples are checked for mortality, growth regulation, and effects on the F1 generation.

[6] = tested on: Aphis craccivora (cowpea aphid); assay: Example B11: translaminar activity against Aphis craccivora; assay type: in vivo; settings: 120 h, French bean leaves, aphids on lower side, upper side painted, 5 days, mortality
Description: Translaminar Activity Against Aphis craccivora (Cowpea Aphid) French bean leaves (Phaseolus vulgaris) are infested with about 20 mixed age individuals on the lower leaf side using clip cages. 1 day after the infestation, the upper side of the leaves is treated with the test solution by painting. 5 days later, samples are checked for mortality.

[7] = tested on: Myzus persicae (green peach aphid); assay: Example B2: Myzus persicae, mixed population, systemic/feeding activity, curative; settings: 144 h, read-out: activity
[8] = tested on: Aphis craccivora (cowpea aphid); assay: Example B10: Aphis craccivora, mixed population, systemic/feeding; assay type: in vivo; settings: 144 h, roots of infested pea seedlings in test solution, 6 days, mortality
From the text: 6 days later, samples are checked for mortality.

[9] = tested on: Myzus persicae (green peach aphid); assay: Example B13: drench activity against Myzus persicae; assay type: in vivo; settings: 168 h, pea seedlings in field soil, 7 days after infestation, mortality
Description: Drench Activity Against Myzus persicae (Green Peach Aphid) Pea seedlings cultivated in field soil are treated as drench application and infested with a mixed population of M. persicae. 7 days after infestation, samples are checked for mortality.

SMILES | pest or weed control at 200 ppm [2] [%] | pest or weed control at 400 ppm [3] [%] | pest or weed control at 400 ppm [4] [%] | also measured
COc1ccc(COC2=C(c3cc(C)ccc3C)C(=O)NC23CCN(OC)CC3)cc1 [P3.2] | – | – | – | pest or weed control at 400 ppm [1]: > 80%
CON1CCC2(CC1)C(O)=C(c1c(C)cc(Cl)cc1C)C(=O)N2C [P2.33] | ≥ 80 | > 80 | – | –
CCOC(=O)OC1=C(c2c(C)cc(C)cc2C)C(=O)N(CC2CC2)C12CCN(OC)CC2 [P1.5] | ≥ 80 | – | > 80 | pest or weed control at 400 ppm [5]: > 80%; pest or weed control at 400 ppm [6]: > 80%
CCN1C(=O)C(c2c(C)cc(C)cc2C)=C(O)C12CCN(OC)CC2 [P2.11] | – | – | – | melting point: 218 to 221 °C
CCOC(=O)OC1=C(c2cc(C)c(Cl)cc2C)C(=O)N(C)C12CCN(OC)CC2 [P1.28] | – | – | – | pest or weed control at 400 ppm [1]: > 80%
CON1CCC2(CC1)C(O)=C(c1c(C)cc(Br)cc1Cl)C(=O)N2C [P2.34] | ≥ 80 | – | – | –
CCOC(=O)OC1=C(c2c(C)cc(Cl)cc2C)C(=O)N(C)C12CCN(OC)CC2 [P1.29] | ≥ 80 | > 80 | – | –
CON1CCC2(CC1)C(OCc1ccccc1)=C(c1c(C)cc(C)cc1C)C(=O)N2CC1CC1 [P3.8, 4-benzyloxy-1-cyclopropylmethyl-8-methoxy-3-(2,4,6-trimethyl-phenyl)-1,8-diaza-spiro[4.5]dec-3-en-2-one] | – | – | > 80 | –
CON1CCC2(CC1)C(O)=C(c1cc(C)c(C)cc1C)C(=O)N2C [P2.25] | – | – | – | melting point: 183 to 186 °C
CON1CCC2(CC1)C(O)=C(c1ccc(Cl)cc1Cl)C(=O)N2CC(F)F [P2.4] | – | > 80 | – | –
CON1CCC2(CC1)C(O)=C(c1c(C)cc(C)cc1Cl)C(=O)N2C [P2.9] | – | > 80 | > 80 | pest or weed control at 400 ppm [7]: > 80%
CCOC(=O)OC1=C(c2c(F)ccc(C)c2Cl)C(=O)N(C)C12CCN(OC)CC2 [P1.10] | – | – | – | pest or weed control at 400 ppm [7]: > 80%
CCOC(=O)OC1=C(c2c(C)cc(C)cc2C)C(=O)N(CC)C12CCN(OC)CC2 [P1.8] | – | – | – | melting point: 101 to 103 °C
CON1CCC2(CC1)C(O)=C(c1c(F)ccc(C)c1Cl)C(=O)N2C [P2.13] | – | – | > 80 | –
CON1CCC2(CC1)C(O)=C(c1c(C)ccc(Cl)c1C)C(=O)N2C [P2.27] | ≥ 80 | – | – | –
CON1CCC2(CC1)C(O)=C(c1c(C)cc(C)cc1Br)C(=O)N2C [P2.14] | – | > 80 | > 80 | pest or weed control at 400 ppm [8]: > 80%; pest or weed control at 400 ppm [5]: > 80%; pest or weed control at 400 ppm [6]: > 80%; pest or weed control at 25 ppm [9]: > 80%
COCCN1C(=O)C(c2c(C)cc(C)cc2C)=C(O)C12CCN(OC)CC2 [P2.7] | – | > 80 | – | pest or weed control at 400 ppm [8]: > 80%; pest or weed control at 400 ppm [5]: > 80%; pest or weed control at 400 ppm [6]: > 80%; pest or weed control at 25 ppm [9]: > 80%
CON1CCC2(CC1)C(O)=C(c1c(C)cccc1C)C(=O)N2C [P2.17] | ≥ 80 | > 80 | – | –
CCOC(=O)OC1=C(c2c(C)cc(C)cc2C)C(=O)N(CC2CCCO2)C12CCN(OC)CC2 (centres unmarked) [P1.26] | – | – | > 80 | –
CON1CCC2(CC1)C(O)=C(c1c(C)cc(C)cc1C)C(=O)N2CC1CCCO1 (centres unmarked) [P2.32] | – | – | > 80 | –
COc1cc(COC2=C(c3cc(C)ccc3C)C(=O)NC23CCN(OC)CC3)cc(OC)c1OC [P3.1] | – | – | – | pest or weed control at 400 ppm [1]: > 80%
CCOC(=O)OC1=C(c2cc(C)ccc2C)C(=O)N(C)C12CCN(OC)CC2 [P1.1] | – | – | – | melting point: 96 to 110 °C
CON1CCC2(CC1)C(O)=C(c1c(C)cc(C)cc1C)C(=O)N2CC1CC1 [P2.8, 1-Cyclopropylmethyl-4-hydroxy-8-methoxy-3-(2,4,6-trimethyl-phenyl)-1,8-diaza-spiro[4.5]dec-3-en-2-one] | – | – | – | melting point: 223 to 225 °C
CON1CCC2(CC1)C(O)=C(c1c(C)cc(Br)cc1C)C(=O)N2C [P2.16] | ≥ 80 | > 80 | – | pest or weed control at 400 ppm [7]: > 80%
CON1CCC2(CC1)C(O)=C(c1c(C)cc(C)c(Cl)c1C)C(=O)N2C [P2.31] | ≥ 80 | > 80 | > 80 | pest or weed control at 400 ppm [7]: > 80%

SMILES | pest or weed control at 200 ppm [2] [%] | pest or weed control at 400 ppm [3] [%] | pest or weed control at 400 ppm [4] [%] | also measured
CCOC(=O)OC1=C(c2ccc(C)cc2C)C(=O)N(C)C12CCN(OC)CC2 [P1.25] | ≥ 80 | > 80 | > 80 | –
CCOC(=O)OC1=C(c2c(Cl)ccc(C)c2F)C(=O)N(C)C12CCN(OC)CC2 [P1.9] | – | – | > 80 | –
CCOC(=O)OC1=C(c2c(C)ccc(Cl)c2C)C(=O)N(C)C12CCN(OC)CC2 [P1.27] | ≥ 80 | > 80 | – | –
CCOC(=O)OC1=C(c2c(C)cc(C)cc2C)C(=O)N(CCOCOC)C12CCN(OC)CC2 [P1.17] | – | > 80 | – | pest or weed control at 400 ppm [7]: > 80%
CCOCN1C(=O)C(c2c(C)cc(C)cc2C)=C(OC(=O)OCC)C12CCN(OC)CC2 [P1.4] | ≥ 80 | > 80 | – | pest or weed control at 400 ppm [8]: > 80%; pest or weed control at 400 ppm [5]: > 80%; pest or weed control at 400 ppm [6]: > 80%; pest or weed control at 25 ppm [9]: > 80%; pest or weed control at 400 ppm [7]: > 80%
CCOC(=O)OC1=C(c2c(C)cccc2C)C(=O)N(C)C12CCN(OC)CC2 [P1.13] | ≥ 80 | > 80 | – | –
CON1CCC2(CC1)C(O)=C(c1cc(C)c(C)cc1Cl)C(=O)N2C [P2.26, 3-(2-Chloro-4,5-dimethyl-phenyl)-4-hydroxy-8-methoxy-1-methyl-1,8-diaza-spiro[4.5]dec-3-en-2-one] | – | – | – | melting point: 191 to 192 °C
CCOC(=O)OC1=C(c2cc(C)c(C)cc2Br)C(=O)N(C)C12CCN(OC)CC2 [P1.20] | – | – | – | melting point: 158 to 159 °C
CCOC(=O)OC1=C(c2cc(C)c(C)cc2Cl)C(=O)N(C)C12CCN(OC)CC2 [P1.22] | – | – | – | melting point: 149 to 150 °C
CCOC(=O)OC1=C(c2c(C)cc(C)cc2Cl)C(=O)N(C)C12CCN(OC)CC2 [P1.6] | – | > 80 | > 80 | –
CON1CCC2(CC1)C(O)=C(c1cc(C)c(C)cc1Br)C(=O)N2C [P2.23] | – | – | – | melting point: 191 to 193 °C
CCOC(=O)OC1=C(c2c(C)cc(C)cc2C)C(=O)N(C2CC2)C12CCN(OC)CC2 [P1.7] | – | > 80 | – | –
CON1CCC2(CC1)NC(=O)C(c1c(C)cc(C)cc1C)=C2OCc1ccccc1 [P3.4, 4-benzyloxy-8-methoxy-3-(2,4,6-trimethyl-phenyl)-1,8-diaza-spiro[4.5]dec-3-en-2-one] | – | – | > 80 | pest or weed control at 400 ppm [1]: > 80%
CCOC(=O)OC1=C(c2c(C)ccc(C)c2C)C(=O)N(C)C12CCN(OC)CC2 [P1.21] | ≥ 80 | – | > 80 | –
CON1CCC2(CC1)C(O)=C(c1c(C)cc(C)cc1C)C(=O)N2C1CC1 [P2.10] | – | > 80 | – | –
CON1CCC2(CC1)C(O)=C(c1c(C)cc(C)cc1C)C(=O)N2CC1(C)COC1 [P2.30] | ≥ 80 | – | – | –
COCOCCN1C(=O)C(c2c(C)cc(C)cc2C)=C(O)C12CCN(OC)CC2 [P2.21] | ≥ 80 | > 80 | > 80 | pest or weed control at 400 ppm [7]: > 80%
CCOC(=O)OC1=C(c2c(C)cc(Br)cc2C)C(=O)N(C)C12CCN(OC)CC2 [P1.12] | ≥ 80 | > 80 | > 80 | –
COCCCN1C(=O)C(c2c(C)cc(C)cc2C)=C(O)C12CCN(OC)CC2 [P2.20] | – | > 80 | > 80 | pest or weed control at 400 ppm [7]: > 80%; pest or weed control at 400 ppm [1]: > 80%
CON1CCC2(CC1)C(O)=C(c1c(C)ccc(C)c1C)C(=O)N2C [P2.24] | ≥ 80 | – | – | –
CCOC(=O)OC1=C(c2c(C)cc(C)cc2Br)C(=O)N(C)C12CCN(OC)CC2 [P1.11] | ≥ 80 | > 80 | – | pest or weed control at 400 ppm [8]: > 80%; pest or weed control at 400 ppm [5]: > 80%; pest or weed control at 400 ppm [6]: > 80%; pest or weed control at 25 ppm [9]: > 80%; pest or weed control at 400 ppm [7]: > 80%
CCOC(=O)OC1=C(c2c(C)cc(C)cc2C)C(=O)N(CCCOC)C12CCN(OC)CC2 [P1.16] | ≥ 80 | > 80 | > 80 | –
CON1CCC2(CC1)C(O)=C(c1cc(C)ccc1C)C(=O)N2C [P2.1] | – | – | – | melting point: 121 to 123 °C
CON1CCC2(CC1)C(O)=C(c1cc(C)c(Cl)cc1C)C(=O)N2C [P2.15] | – | – | > 80 | –
